Assay results from patent US20050214336A1, “Parasite control in animals” (priority 2002, published 2005).

Tested on: Musca domestica first instars
Test: Development of Musca domestica larvae on cattle dung following oral treatment of the animal (feed-through test)
Type: in vivo
Conditions: cattle 300 kg, 3 g active compound in capsule on three consecutive days, dung samples
Source text: Test for the development of Musca domestica larvae on cattle dung following oral treatment of the animal with active-compound-comprising formulation (feed-through test) Cattle 300 kg in weight are fed on three consecutive days with in each case 3 g of active compound in a capsule formulation. Dung samples of treated animals are populated with Musca domestica first instars, and the development into adult flies was monitored in comparison with the development of dung samples of an untreated control. Those substances which reliably prevent the development of adults over a period of four weeks are assessed as active.

SMILES: CCC(C)(C)C(=O)OC1=C(c2ccc(Cl)cc2Cl)C(=O)OC12CCCCC2 [compound A, 2,2-dimethyl-, 3-(2,4-dichlorophenyl)-2-oxo-1-oxaspiro[4,5]dec-3-en-4-yl-butanoate]
- long-term activity (prevention of development into adult flies) (after day 3, long-term (period of four weeks)): 100%
- activity (prevention of development into adult flies) (up to day 3 after the treatment): 50%
